According to PubChem BioAssay (NCI):
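Compound exposure: 48 hours, 5 concentrations, 96-well plates. TGI: concentration producing complete growth inhibition.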

How the values were obtained:
Experiment in all cases: NCI anticancer screen, dose series, 48 h
IGROV1 ovarian = test system: IGROV1 ovarian
HOP-92 NSCLC = test system: HOP-92 NSCLC
K-562 leukemia = test system: K-562 leukemia
A549 NSCLC = test system: A549 NSCLC
CAKI-1 renal = test system: CAKI-1 renal
786-0 renal = test system: 786-0 renal
RXF 393 renal = test system: RXF 393 renal
ACHN renal = test system: ACHN renal
COLO 205 colon = test system: COLO 205 colon
OVCAR-4 ovarian = test system: OVCAR-4 ovarian
HL-60(TB) leukemia = test system: HL-60(TB) leukemia
OVCAR-8 ovarian = test system: OVCAR-8 ovarian
OVCAR-5 ovarian = test system: OVCAR-5 ovarian
SF-295 CNS = test system: SF-295 CNS
HOP-62 NSCLC = test system: HOP-62 NSCLC
SNB-78 CNS = test system: SNB-78 CNS
UACC-257 melanoma = test system: UACC-257 melanoma
SF-539 CNS = test system: SF-539 CNS
DMS 273 small cell lung = test system: DMS 273 small cell lung
HOP-18 NSCLC = test system: HOP-18 NSCLC
CCRF-CEM leukemia = test system: CCRF-CEM leukemia
NCI-H460 lung = test system: NCI-H460 lung
SK-MEL-2 melanoma = test system: SK-MEL-2 melanoma
HT29 colon = test system: HT29 colon
SK-OV-3 ovarian = test system: SK-OV-3 ovarian
SW-620 colon = test system: SW-620 colon
UACC-62 melanoma = test system: UACC-62 melanoma
DMS 114 small cell lung = test system: DMS 114 small cell lung
LXFL 529 NSCLC = test system: LXFL 529 NSCLC
KM20L2 colon = test system: KM20L2 colon
TK-10 renal = test system: TK-10 renal
SN12C renal = test system: SN12C renal
NCI-H23 lung = test system: NCI-H23 lung
M19-MEL melanoma = test system: M19-MEL melanoma
SK-MEL-5 melanoma = test system: SK-MEL-5 melanoma
RPMI-8226 leukemia = test system: RPMI-8226 leukemia
SNB-19 CNS = test system: SNB-19 CNS
KM12 colon = test system: KM12 colon
DLD-1 colon = test system: DLD-1 colon
LOX IMVI melanoma = test system: LOX IMVI melanoma
MOLT-4 leukemia = test system: MOLT-4 leukemia
XF 498 CNS = test system: XF 498 CNS
EKVX NSCLC = test system: EKVX NSCLC
M14 melanoma = test system: M14 melanoma
NCI-H226 lung = test system: NCI-H226 lung
U251 CNS = test system: U251 CNS
MALME-3M melanoma = test system: MALME-3M melanoma
SNB-75 CNS = test system: SNB-75 CNS
A498 renal = test system: A498 renal
UO-31 renal = test system: UO-31 renal
NCI-H522 lung = test system: NCI-H522 lung
SF-268 CNS = test system: SF-268 CNS
HCT-116 colon = test system: HCT-116 colon
SK-MEL-28 melanoma = test system: SK-MEL-28 melanoma
OVCAR-3 ovarian = test system: OVCAR-3 ovarian

Measured: TGI

O=C(OCCO)C1CC2CC1C1(C2)OCCO1 (stereo not given)
> 100 µM: all assays above
